Data reported in patent publication US4141993A, “Compounds of diphenylcyclopentylamine type and methods for their preparation” (priority 1971, dated 1979).
Where two headings read alike, the source gives them in different places.

Columns and labels:
Dopa response = Dopa response potentiation test; format: in vivo, mice; conditions: score, pargyline pretreated; for L-DOPA potentiation, 10 mg/kg i.p., 1h: drug 1 h before 1-Dopa 100 mg/kg i.p.; for L-DOPA potentiation, 10 mg/kg i.p., 4h: drug 4 h before 1-Dopa 100 mg/kg i.p.
Method: Mice in groups of 3 are pretreated with Pargyline® 40 mg/kg p.o. about 10-16 hours before the test. […] 1-Dopa gives a characteristic syndrome which is scored as follows:
1. piloerection, slight salivation, slight increased motor activity
2. piloerection, salivation, marked increased motor activity and irritability
3. piloerection, profuse salivation, marked irritability and reactivity, jumping, squeaking, fighting.
The control groups are Amitriptyline (20 mg/kg i.p. 4 hours before 1-Dopa) and saline (1 hour before 1-Dopa). […] The test drugs were all tested at 10 mg/kg i.p.

uptake of tritiated 5-HT [1] = experiment: Inhibition of the uptake of tritiated 5-HT in vitro (midbrain slices); format: biochemical, mice; conditions: for Inhibition (50 %) of uptake in vitro, 5-HT: 5-hydroxytryptamine 10^-7 M
Method: (§1) 1. Inhibition of the uptake of tritiated 5-HT in vitro and in vivo
[…] out and sliced and incubated in a mixture consisting of, per 100 mg of brain slices, […] 2 ml of Krebs-Henseleit buffer, pH 7.4. The incubation time was 5 minutes with 5 minutes of preincubation before ^3 H-5-HT was added. The radioactive ^3 H-5-HT taken up in the slices was extracted with ethanol and the amount was determined by liquid scintillation. […] Active uptake is defined as that part of the radioactive uptake which is inhibited by a high concentration of cocaine. All doses were given at least to four animals.

mice [2] = experiment: Motor activity in mice (exploratory activity, locomotion cage); format: in vivo; conditions: Mus musculus, ip, 1 h, read-out: Motor activity ID50
Method: The exploratory activity of mice was recorded in a locomotion cage in which the movements were counted each time the animals cross-circuit an electrical current in the bottom plate. The activity was recorded for ten minutes one hour after the administration of the drug. The animals were tested individually. Groups of six mice were used and the mice were only used once. The activity was expressed in percent of the activity of control groups ran simultaneously.

uptake of tritiated 5-HT [3] = experiment: Inhibition of the uptake of tritiated 5-HT in vivo (drug i.p., uptake in midbrain slices); design: species or system mice; conditions: for ED50: Mus musculus, ip, 0.5 h, read-out: Inhibition (50 %) of uptake in vivo, 5-HT (ED50), i.p., half an hour before the animals were killed
Method: as §1
The drugs were administered intraperitoneally half an hour before the animals were killed and the midbrain was taken out and sliced and incubated in a mixture consisting of, per 100 mg of brain slices, 0.2 μmole of ^3 H-5-HT and 1 μmole of glucose in 2 ml of Krebs-Henseleit buffer, pH 7.4. The incubation time was 5 minutes with 5 minutes of preincubation before ^3 H-5-HT was added. The radioactive ^3 H-5-HT taken up in the slices was extracted with ethanol and the amount was determined by liquid scintillation. […] Active uptake is defined as that part of the radioactive uptake which is inhibited by a high concentration of cocaine. All doses were given at least to four animals.

mice [4] = experiment: Anticholinergic effect (mydriasis) in mice; format: in vivo
Method: (§2) Acute toxicity, behavior and anticholinergic effect (mydriasis) in mice
(§3) The compounds were given by intravenous route to 3 mice. […] Seizures, gait, sedation and grip strength were recorded. […] PD200 is the dose which increases the pupil by 200%.

5-HTP response = 5-HTP response potentiation test; format: in vivo, mice; conditions: for 5-HTP potentiation, 25 mg/kg i.p., 1h: drug 1 h before 5-HTP; for 5-HTP potentiation, 25 mg/kg i.p., 1h / 5-HTP potentiation, 25 mg/kg i.p., 4h: 0 = without effect; for 5-HTP potentiation, 25 mg/kg i.p., 4h: drug 4 h before 5-HTP
Method: 1. 5-HTP response potentiation test
Inhibition of the uptake of 5-HT potentiates the effects of administered 5-hydroxytryptophane (5-HTP) probably by increasing the amount of 5-HT at the receptor.
These small movements are quantitatively measured in an activity box, type Animex, which can distinguish between small and gross movements. The activity is measured during 20 minutes and only in the case the animals have a fullblown syndrome.

[5] = system: uptake of tritiated noradrenaline; experiment: Inhibition of the uptake of tritiated noradrenaline in vivo (drug i.p., uptake in cortex slices); conditions: for ED50: ip, 1 h, read-out: Inhibition (50 %) of uptake in vivo, NA (ED50), i.p., half or one hour before the animals were killed
Method: (§4) 2. Inhibition of the uptake of tritiated noradrenaline in vitro and in vivo
(§5) The animals were killed half or one hour after the administration of the drugs in vivo (i.p.). The slices, made from cortex, were preincubated for five minutes and incubated with 0.1 μmole per ml of ^3 H-noradrenaline for further five minutes. The incubation mixture consisted of 0.2 μmole of ^3 H-NA and the brain slices in 2 ml of Krebs-Henseleits buffer, pH 7.4. The radioactive ^3 H-NA taken up in the slices was extracted with ethanol and the amount was determined by liquid scintillation. The dose producing 50 percent decrease of the active uptake (ED50) was determined graphically from dose response curves. At least four animals were used at each dose level.

[6] = first observable after; cited from earlier work
[7] = system: uptake of tritiated noradrenaline; experiment: Inhibition of the uptake of tritiated noradrenaline in vitro (cortex slices); format: biochemical; conditions: for Inhibition (50 %) of uptake in vitro, NA: dl-noradrenaline 10^-7 M
Method: as §4
as §5, with “The method is found in European Journal of Pharmacology 2 (1967), 181- 186. The animals” for “The animals”
Inhibition (50 %) of uptake
^2) Na = dl-noradrenaline 10^-7 M

[8] = Drug induced arrhythmia in rats: ECG changes and LD50; format: in vivo; conditions: in vivo, iv; i.v. infusion, rat, stepwise increased doses
From the text: (§6) Drug Induced Arrhythmia in Rats: ECG changes and LD50
(§7) Rats were infused intravenously with test drugs and relevant reference compounds. The doses are increased stepwise. The first dose causing ECG changes of any type was noted, and thereafter the doses were increased up to the lethal dose.

rats = experiment: as above; format: in vivo
From the text: as §6, §7

uptake of tritiated 5-HT [9] = experiment: Inhibition of the uptake of tritiated 5-HT in vivo (drug i.p., uptake in midbrain slices); design: species or system mice
Acute toxicity in mice = conditions: mouse, in vivo, iv, within 24 hours
Method: as §2, §3

Which results are given for `CN(C)CCCN1c2ccccc2CCc2ccccc21` [Imipramine, imipramine, reference compound]?
L-DOPA potentiation, 10 mg/kg i.p., 1h (Dopa response): 2; L-DOPA potentiation, 10 mg/kg i.p., 4h (Dopa response): 1; Inhibition (50 %) of uptake in vitro, 5-HT (uptake of tritiated 5-HT [1]): 0.10 µg/mL; ED50 (mice [2]): 45 mg/kg; ED50 (uptake of tritiated 5-HT [3]): 24 mg/kg; Mydriasis PD200 (mice [4]; i.v., 10 minutes after injection, dose which increases the pupil by 200%): 13 mg/kg; potentiation of dl-5-HTP by reference, in words (5-HTP response; control group): constantly potentiated dl-5-HTP; 5-HTP potentiation, 25 mg/kg i.p., 1h (5-HTP response): 25; 5-HTP potentiation, 25 mg/kg i.p., 4h (5-HTP response): 0; ED50 [5]: 6 mg/kg; onset of antidepressive effect [6]: 3 weeks; Inhibition (50 %) of uptake in vitro, NA [7]: 0.06 µg/mL

Which results are given for `NC1CCC(c2ccccc2)(c2ccccc2)C1` (stereo not shown) [PUB 105, 1-Amino-3,3-diphenylcyclopentane]?
LD50 [8]: 58 mg/kg; ECG changes i.v. rat (first dose causing ECG changes of any type) (rats; i.v. infusion): 14; dose causing ECG changes relative to that of imipramine (rats; i.v., rat): 3 times; L-DOPA potentiation, 10 mg/kg i.p., 1h (Dopa response): 3; L-DOPA potentiation, 10 mg/kg i.p., 4h (Dopa response): 3; uptake inhibition still pronounced after (uptake of tritiated 5-HT [9]): 16 h; time of maximal uptake inhibition (uptake of tritiated 5-HT [9]; uptake inhibition increases with time): four; duration of inhibition of the uptake mechanism compared with imipramine (uptake of tritiated 5-HT [9]; uptake of 5-HT and noradrenaline): much longer time than does the reference substance imipramine; Inhibition (50 %) of uptake in vitro, 5-HT (uptake of tritiated 5-HT [1]): 0.18 µg/mL; inhibition of uptake of 5-hydroxytryptamine in vitro, in words (uptake of tritiated 5-HT [1]; in vitro): potent inhibitors; ED50 (mice [2]; i.p., one hour after administration): > 50 mg/kg; ED50 (uptake of tritiated 5-HT [3]): 10 to 20 mg/kg; inhibition of uptake of 5-hydroxytryptamine in vivo, in words (uptake of tritiated 5-HT [3]; in vivo): strong inhibition; Mydriasis PD200 (mice [4]; mouse, in vivo, iv, 10 min): 19 mg/kg; 5-HTP potentiation, 25 mg/kg i.p., 1h (5-HTP response): 12.5; 5-HTP potentiation, 25 mg/kg i.p., 4h (5-HTP response): 25; inhibition of uptake of noradrenaline in vivo, in words ([5]; in vivo): strong inhibition; ED50 [5]: 20 mg/kg; selectivity towards noradrenaline ([5]; uptake inhibition, compared with imipramine): substantially nonselective ability towards noradrenaline; LD50 at 24 h (Acute toxicity in mice): 22 mg/kg; Inhibition (50 %) of uptake in vitro, NA [7]: 0.15 µg/mL; inhibition of uptake of noradrenaline in vitro, in words ([7]; in vitro): potent inhibitors
